Consider 23 compounds from ChEMBL document CHEMBL5029158, “Design, structure-activity relationship study and biological evaluation of the thieno[3,2-c]isoquinoline scaffold as a potential anti-cancer agent” (Bioorg Med Chem Lett, 2021).

Series [1] addresses T1, Tubulin (Homo sapiens) (UniProt P68371+Q9H4B7+P0DPH7+P68366+Q13509+Q71U36+P04350+Q3ZCM7+P07437+P68363+Q9BQE3+Q6PEY2+Q13885+Q9BVA1+Q9BUF5). The series can be described thus: Inhibition of colchicine binding to tubulin (unknown origin) at 1 uM by fluorescence assay. Type of series: protein-complex assay.
Series [2] concerns A549. The series is described as follows: Cytotoxicity against human A549 cells assessed as reduction in cell viability. Type of series: functional, cell-based.
Series [3] concerns A549. The series can be described thus: Potency index, ratio of […] for cytotoxicity against human A549 cells assessed as reduction in cell viability. The class given is functional.
Series [4] deals with A549. The series is described as follows: Antitumor activity against human A549 cell assessed as disrupted in spheroid morphology at 0.5 to 1 uM measured after 6 days. Type of series: functional, cell-based. The settings on record: dose 0.5-1 µM, time 6.0 day.
Series [5] relates to A549. The series is described as follows: Induction of mitotic arrest in human A549 cells assessed as reduction in microtubule network with fragmented spindle poles at 0.50 uM measured after 8 hrs by DAPI/ACA staining based fluorescence microscopic analysis. Conditions: dose 0.5 µM. Type of series: functional, cell-based.
Another series relates to HCT-116. The series is described as follows: Cytotoxicity against human HCT-116 cells assessed as reduction in cell viability. Type of series: functional, cell-based.
The next series has as its system HFF-1. The series can be described thus: Cytotoxicity against human HFF-1 cells assessed as reduction in cell viability. Type of series: cell-based.
A further series concerns HeLa. The series is described as follows: Cytotoxicity against human HeLa cells assessed as reduction in cell viability. Type of series: functional, cell-based.
Series [6] can be described thus: Selectivity index, ratio of IC50 for cytotoxicity against human fibroblasts to IC50 for human A549 cells. The class given is toxicity, cell-based. Conditions: human fibroblasts versus A549 cells, read-out: Selectivity Index.
In another series the test system is MDA-MB-231. The series is described as follows: Cytotoxicity against human MDA-MB-231 cells assessed as reduction in cell viability. Type of series: functional, cell-based.
A short description of series [7]: Selectivity index, ratio of IC50 for cytotoxicity against human fibroblasts to IC50 for human HeLa cells. Conditions: human fibroblasts versus HeLa cells, read-out: Selectivity Index. Type of series: toxicity, cell-based.
Series [8] in a line: Selectivity index, ratio of IC50 for cytotoxicity against human fibroblasts to IC50 for human HCT-116 cells. Conditions: human fibroblasts versus HCT-116 cells, read-out: Selectivity Index. Type of series: toxicity, cell-based.
For series [9], the system named is A549. The series can be described thus: Cytotoxicity against human A549 cells assessed as cell death measured after 2 to 3 days. The class given is functional, cell-based. The settings on record: time 2-3 day.
Series [10] has as its target T1, Tubulin (Homo sapiens). The series can be described thus: Inhibition of microtubule (unknown origin) polymerization at 0.6 uM. Type of series: protein-complex assay.
The next series relates to Fibroblast. The series is described as follows: Cytotoxicity against human fibroblasts assessed as reduction in cell viability. Type of series: cell-based.
The nature of series [11]: Selectivity index, ratio of IC50 for cytotoxicity against human fibroblasts to IC50 for human MDA-MB-231 cells. Type of series: toxicity, cell-based. The settings on record: human fibroblasts versus MDA-MB-231 cells, read-out: Selectivity Index.
Series [12] concerns the target T1, Tubulin (Homo sapiens). The series can be described thus: Inhibition of microtubule (unknown origin) polymerization at 5 uM. The class given is protein-complex assay.

Active and inactive are the calls of the source. The calls are words filed in the database; no cut-off is given here. A value given as a limit tells only on which side of the number the result lay.

On to `CC[C@]1(O)C[C@@H]2CN(CCc3c([nH]c4ccccc34)[C@@](C(=O)OC)(c3cc4c(cc3OC)N(C)[C@H]3[C@@](O)(C(=O)OC)[C@H](OC(C)=O)[C@]5(CC)C=CCN6CC[C@]43[C@@H]65)C2)C1`, for which, at Tubulin (Homo sapiens) [1], the inhibition entry is “inactive”.
Regarding `O=S(=O)(c1ccccc1)N1Cc2ccccc2-c2sc(Br)cc21`, the IC50 (as a rule, the concentration that inhibits the measured activity by half) in the series with A549 [2] amounted to 1900 nM. Further, in the series with A549 [3], the “Ratio IC50” value was 118.7.
Turning to `CC(C)(C)c1ccc(S(=O)(=O)N2Cc3ccccc3-c3sccc32)cc1`, the IC50 with A549 [2] was over 10000 nM.
Consider `Cc1ccc(S(=O)(=O)N2Cc3ccccc3-c3sccc32)cc1`, for which the 50% inhibitory concentration (IC50) with A549 [2] was found to be 3400 nM.
Take `COc1ccc(S(=O)(=O)N2Cc3ccccc3-c3sc(Cl)c(C)c32)cc1`: the IC50 in the series on A549 [2] stood at 550 nM. Further, in the series on A549 [3], the “Ratio IC50” value stood at 34.3.
Consider `COc1ccc(S(=O)(=O)N2Cc3ccccc3-c3sc(Cl)cc32)cc1`, for which, in the series on A549 [2], the IC50 was 430 nM. Besides, in the series with A549 [3], the “Ratio IC50” value is 36.8.
`COc1ccc(S(=O)(=O)N2Cc3ccccc3-c3sc(Br)c(C)c32)cc1`: in the series on A549 [2], the IC50 came to 2800 nM. Besides, the “Ratio IC50” value in the series on A549 [3] is on record as 175.
As to `COc1ccc(S(=O)(=O)N2Cc3ccccc3-c3sc(Br)cc32)cc1`, the result with A549 [4] and in the series on A549 [9] was Active. Moreover, the result with A549 [5] was inactive. Also, the IC50 in the series on HCT-116 was determined as 430 nM; in the series on HFF-1, 790 nM; with HeLa, 430 nM; in the series on MDA-MB-231 it was 260 nM; in the series on A549 [2] it was 370 nM; with Fibroblast, 1400 nM. The selectivity ratio was determined as 3.8 in series [6], 3.2 in series [7], 3.2 in [8] and 5.3 in [11]. For the same compound, the inhibition result at Tubulin (Homo sapiens) [10], at Tubulin (Homo sapiens) [1] and at Tubulin (Homo sapiens) [12] was “Active” throughout. Also, the “Ratio IC50” value in the series on A549 [3] is reported as 23.1.
Turning to `O=S(=O)(c1ccccc1)N1Cc2ccccc2-c2sccc21`, the IC50 with A549 [2] is 5200 nM.
On to `COc1cc2c(c(OC)c1OC)-c1ccc(OC)c(=O)cc1[C@@H](NC(C)=O)CC2` [COLCHICINE], for which the values for the IC50 in the series on HCT-116, in the series on HeLa and in the series on A549 [2] were 22 nM, 10 nM and 16 nM, respectively.
As for `COC(=O)Nc1nc2cc(C(=O)c3cccs3)ccc2[nH]1`, the inhibition result on Tubulin (Homo sapiens) [1] was “Active”.
`Cc1cccc(S(=O)(=O)N2Cc3ccccc3-c3sc(Br)cc32)c1`: the IC50 in the series on A549 [2] was 2300 nM. Besides, in the series on A549 [3], the “Ratio IC50” value came out at 143.7.
Take `O=S(=O)(c1ccc(C(F)(F)F)cc1)N1Cc2ccccc2-c2sc(Br)cc21`: the IC50 in the series with A549 [2] was over 10000 nM. In addition, the “Ratio IC50” value in the series on A549 [3] is given as over 625.
For `Cc1ccc(S(=O)(=O)N2Cc3ccccc3-c3sc(Br)cc32)cc1` the same measures were 2100 nM and 131.2.
On to `CC(C)(C)c1ccc(S(=O)(=O)N2Cc3ccccc3-c3sc(Br)cc32)cc1`, for which the IC50 with A549 [2] was over 10000 nM. In the series with A549 [3], the “Ratio IC50” value was over 625.
For the compound `CS(=O)(=O)N1Cc2ccccc2-c2sc(Br)cc21`, the half-inhibitory concentration (IC50) in the series on A549 [2] is over 10000 nM. Besides, in the series with A549 [3], the “Ratio IC50” value was over 625.
For `COc1ccc(S(=O)(=O)N2Cc3ccccc3-c3sc(I)cc32)cc1`, the IC50 in the series with A549 [2] amounted to 780 nM. The “Ratio IC50” value in the series with A549 [3] came out at 48.7.
For the compound `Cc1cccc(S(=O)(=O)N2Cc3ccccc3-c3sccc32)c1`, the half-inhibitory concentration (IC50) with A549 [2] worked out at 6000 nM.
As to `COc1ccc(S(=O)(=O)N2Cc3ccccc3-c3scc(C)c32)cc1`, the IC50 in the series on A549 [2] came to 630 nM. The “Ratio IC50” value in the series on A549 [3] stood at 39.3.
Take `COc1ccc(S(=O)(=O)N2Cc3ccccc3-c3sccc32)cc1`: the concentration for half-maximal inhibition (IC50) with A549 [2] came out at 780 nM.
In the case of `CS(=O)(=O)N1Cc2ccccc2-c2sccc21`, the IC50 in the series with A549 [2] was over 10000 nM.
For `O=S(=O)(c1cccs1)N1Cc2ccccc2-c2sccc21`, the IC50 in the series with A549 [2] was over 10000 nM.
The same measure, in the same setting: the value for `O=S(=O)(c1ccc(C(F)(F)F)cc1)N1Cc2ccccc2-c2sccc21` was over 10000 nM.
